Measurements: patent US20040039053A1, “Use of(-) (3-halomethylphenoxy) (4-halophenyl) acetic acid derivatives for treatment of insulin resistance, type 2 diabetes, hyperlipidemia and hyperuricemia” (priority 2000, published 2004)
Values joined by “and” are separate entries in the source; they are usually repeats but may differ in a detail not shown here. Equal entries are not always repeated. Where two headings read alike, the source gives them in different places.

How the values were obtained:
CYP2C9 [1] = biological target: T1, CYP2C9 (Homo sapiens, UniProt P11712); settings: for Tolbutamide 4-OH TB Production: both, human, 40 min
T1 sequence (P11712 whole entry): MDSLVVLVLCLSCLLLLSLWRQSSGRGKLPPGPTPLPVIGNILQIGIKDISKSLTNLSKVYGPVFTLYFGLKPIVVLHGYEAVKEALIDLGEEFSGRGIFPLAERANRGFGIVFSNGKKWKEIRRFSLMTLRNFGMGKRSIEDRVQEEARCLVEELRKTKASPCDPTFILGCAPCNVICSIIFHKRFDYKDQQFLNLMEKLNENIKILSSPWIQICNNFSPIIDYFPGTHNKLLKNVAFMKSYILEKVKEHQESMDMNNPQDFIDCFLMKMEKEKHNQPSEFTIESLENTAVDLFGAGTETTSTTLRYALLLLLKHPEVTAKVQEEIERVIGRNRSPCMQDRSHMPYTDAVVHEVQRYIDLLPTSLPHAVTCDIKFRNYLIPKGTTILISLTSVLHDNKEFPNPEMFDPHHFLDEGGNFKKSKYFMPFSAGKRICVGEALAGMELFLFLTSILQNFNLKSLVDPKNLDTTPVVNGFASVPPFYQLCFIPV

[2] = Pharmacokinetic study in SD rats, chiral HPLC of plasma halofenic acids (Example 14); format: in vivo; settings: single oral dose of (−) halofenate 50 mg/kg
Method: Male 225-250 g SD rats were purchased from Charles River. […] A catheter was placed in the left carotid artery under sodium pentobarbital (50 mg/kg i.p.) and animals were allowed to recover for 2 days before treatment. […] The gavage volume was 5 ml/kg. Blood samples were collected at 1, 2, 4, 6, 8, 12, 24, 48, 72, 96 and 120 hours post dose. The plasma samples were analyzed for each enantiomeric acid ((−) halofenic acid and (+) halofenic acid) by a chiral specific HPLC assay, since the esters are prodrugs, which are designed to convert to their respective enantiomeric acids in vivo.

CYP3A4 [3] = biological target: T2, CYP3A4 (Homo sapiens, UniProt P08684); assay: in vitro; settings: both, microsomes
T2 sequence (P08684 whole entry): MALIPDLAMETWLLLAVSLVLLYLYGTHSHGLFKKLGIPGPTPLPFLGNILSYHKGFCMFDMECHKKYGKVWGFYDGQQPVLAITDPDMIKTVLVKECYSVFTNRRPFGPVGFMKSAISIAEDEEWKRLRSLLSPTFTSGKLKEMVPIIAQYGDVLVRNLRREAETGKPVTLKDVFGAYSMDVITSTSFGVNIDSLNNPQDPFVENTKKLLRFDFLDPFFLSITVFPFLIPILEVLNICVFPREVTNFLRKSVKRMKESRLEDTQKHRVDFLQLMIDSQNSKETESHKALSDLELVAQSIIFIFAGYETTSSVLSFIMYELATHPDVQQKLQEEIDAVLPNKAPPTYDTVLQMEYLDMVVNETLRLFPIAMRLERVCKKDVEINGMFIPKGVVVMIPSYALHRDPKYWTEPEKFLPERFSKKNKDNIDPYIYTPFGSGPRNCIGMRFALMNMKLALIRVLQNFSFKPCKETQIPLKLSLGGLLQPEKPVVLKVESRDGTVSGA

CYP2E1 [4] = biological target: T3, CYP2E1 (Homo sapiens, UniProt P05181); assay: in vitro; settings: both, microsomes
T3 sequence (P05181 whole entry): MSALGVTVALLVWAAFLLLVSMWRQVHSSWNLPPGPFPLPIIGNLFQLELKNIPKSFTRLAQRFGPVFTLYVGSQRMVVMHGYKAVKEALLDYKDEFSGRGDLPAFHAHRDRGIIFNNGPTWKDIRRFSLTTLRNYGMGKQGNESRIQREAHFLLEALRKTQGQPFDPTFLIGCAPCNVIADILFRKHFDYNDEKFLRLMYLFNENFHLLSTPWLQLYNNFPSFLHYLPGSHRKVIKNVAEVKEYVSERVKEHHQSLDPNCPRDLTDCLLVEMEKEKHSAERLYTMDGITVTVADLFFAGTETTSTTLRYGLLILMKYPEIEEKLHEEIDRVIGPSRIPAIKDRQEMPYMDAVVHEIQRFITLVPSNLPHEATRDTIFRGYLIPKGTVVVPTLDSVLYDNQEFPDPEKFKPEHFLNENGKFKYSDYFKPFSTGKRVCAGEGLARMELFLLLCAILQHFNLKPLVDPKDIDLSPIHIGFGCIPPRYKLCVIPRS

CYP2E1 [5] = biological target: T3, CYP2E1; settings: both, 20 min
CYP2D6 [6] = biological target: T4, CYP2D6 (Homo sapiens, UniProt P10635); settings: both, 15 min
T4 sequence (P10635 whole entry): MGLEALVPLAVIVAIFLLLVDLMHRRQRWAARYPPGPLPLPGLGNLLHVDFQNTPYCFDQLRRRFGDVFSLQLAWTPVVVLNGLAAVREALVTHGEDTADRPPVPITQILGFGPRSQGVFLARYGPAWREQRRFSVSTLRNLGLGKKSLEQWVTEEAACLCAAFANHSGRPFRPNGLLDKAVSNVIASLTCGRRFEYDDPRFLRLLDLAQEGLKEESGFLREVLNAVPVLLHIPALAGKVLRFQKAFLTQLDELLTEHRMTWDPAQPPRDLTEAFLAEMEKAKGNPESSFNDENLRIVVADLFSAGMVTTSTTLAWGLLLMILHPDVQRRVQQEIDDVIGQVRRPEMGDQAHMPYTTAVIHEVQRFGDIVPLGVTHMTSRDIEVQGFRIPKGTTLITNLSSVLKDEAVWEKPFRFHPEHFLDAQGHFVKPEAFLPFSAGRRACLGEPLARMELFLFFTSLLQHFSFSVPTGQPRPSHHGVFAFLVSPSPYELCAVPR

CYP1A2 = biological target: T5, CYP1A2 (Homo sapiens, UniProt P05177); assay: in vitro; settings: both, microsomes
T5 sequence (P05177 1-516): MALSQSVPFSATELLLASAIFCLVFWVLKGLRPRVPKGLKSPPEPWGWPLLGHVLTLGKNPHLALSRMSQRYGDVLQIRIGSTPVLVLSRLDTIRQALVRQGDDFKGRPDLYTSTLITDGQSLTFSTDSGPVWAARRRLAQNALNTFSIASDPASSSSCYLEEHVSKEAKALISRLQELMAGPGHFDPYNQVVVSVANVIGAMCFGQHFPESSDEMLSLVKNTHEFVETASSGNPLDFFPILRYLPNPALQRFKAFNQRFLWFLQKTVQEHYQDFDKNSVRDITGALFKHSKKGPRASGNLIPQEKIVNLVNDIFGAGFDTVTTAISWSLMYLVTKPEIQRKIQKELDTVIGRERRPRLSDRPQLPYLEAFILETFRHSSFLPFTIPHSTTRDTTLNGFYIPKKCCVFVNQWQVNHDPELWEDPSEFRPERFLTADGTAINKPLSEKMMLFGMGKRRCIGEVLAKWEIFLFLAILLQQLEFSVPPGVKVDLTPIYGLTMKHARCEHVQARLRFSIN

CYP2A6 = biological target: T6, CYP2A6 (Homo sapiens, UniProt P11509); assay: in vitro; settings: both, microsomes
T6 sequence (P11509 1-494): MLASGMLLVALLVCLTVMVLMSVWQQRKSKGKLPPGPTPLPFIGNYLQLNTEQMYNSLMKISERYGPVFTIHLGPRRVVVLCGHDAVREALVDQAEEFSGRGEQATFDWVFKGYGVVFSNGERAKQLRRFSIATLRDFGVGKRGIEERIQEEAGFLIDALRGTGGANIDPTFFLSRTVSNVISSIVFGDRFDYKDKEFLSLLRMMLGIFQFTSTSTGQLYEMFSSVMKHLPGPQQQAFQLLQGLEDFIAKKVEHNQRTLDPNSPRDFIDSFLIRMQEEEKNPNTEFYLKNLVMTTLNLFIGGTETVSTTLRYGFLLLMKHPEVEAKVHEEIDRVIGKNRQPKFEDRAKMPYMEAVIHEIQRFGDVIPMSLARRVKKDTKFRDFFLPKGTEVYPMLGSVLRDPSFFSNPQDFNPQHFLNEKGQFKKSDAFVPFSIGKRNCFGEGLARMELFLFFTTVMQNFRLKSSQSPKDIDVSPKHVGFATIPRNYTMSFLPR

CYP3A4 [7] = biological target: T2, CYP3A4; settings: both, 10 min
CYP2C9 [8] = biological target: T1, CYP2C9; assay: in vitro; settings: both, microsomes
CYP2E1 [9] = biological target: T3, CYP2E1; assay: Cytochrome P450 isoform inhibition in human hepatic microsomes, chlorzoxazone (Example 18); settings: 0.33 to 33.3 μM
CYP2D6 [10] = biological target: T4, CYP2D6; assay: in vitro; settings: both, microsomes

Structure (SMILES): O=C(O)C(Oc1cccc(C(F)(F)F)c1)c1ccc(Cl)cc1 (single isomer, unassigned; (-)) [(−) halofenic acid, (−) 4-chlorophenyl-(3-trifluoromethylphenoxy)-acetic acid]
- IC50 for CYP2C9 in Example 18 relative to that reported in Example 7 (CYP2C9 [1]): approximately three times
- Tolbutamide 4-OH TB Production (CYP2C9 [1]; 0.33 μM): 41.0 ± 0.9 pmol/mg protein/min
- Tolbutamide 4-OH TB Production (CYP2C9 [1]; 1 μM): 38.6 ± 0.5 pmol/mg protein/min
- Tolbutamide 4-OH TB Production (CYP2C9 [1]; 3.3 μM): 34.2 ± 0.2 pmol/mg protein/min
- Tolbutamide 4-OH TB Production (CYP2C9 [1]; 10 μM): 22.7 ± 0.6 pmol/mg protein/min
- Tolbutamide 4-OH TB Production (CYP2C9 [1]; 33.3 μM): 12.7 ± 0.2 pmol/mg protein/min
- concentration at 96 h ([2]; male, SD, rat, plasma, oral, 50 mg/kg, individual rats 8, 11): 31.1 µg/mL
- concentration at 120 h ([2]; male, SD, rat, plasma, oral, 50 mg/kg, rat 8): 20.3 µg/mL
- plasma concentration at 0 hour ([2]; individual rats 8, 9, 11): BQL (BQL = Below Quantifiable Limit < 1.00 μg/mL)
- plasma concentration at 1 hour ([2]; individual rats 8, 9, 11): 81.2 µg/mL and 23.7 µg/mL and 61.0 µg/mL
- plasma concentration at 2 hours ([2]; individual rats 8, 9, 11): 100.1 µg/mL and 30.4 µg/mL and 87.8 µg/mL
- plasma concentration at 4 hours ([2]; individual rats 8, 9, 11): 122.3 µg/mL and 36.9 µg/mL and 94.5 µg/mL
- plasma concentration at 6 hours ([2]; individual rats 8, 9, 11): 128.3 µg/mL and 56.5 µg/mL and 116.3 µg/mL
- plasma concentration at 8 hours ([2]; individual rats 8, 9, 11): 128.2 µg/mL and 79.0 µg/mL and 127.8 µg/mL
- plasma concentration at 12 hours ([2]; individual rats 8, 9, 11): 135.3 µg/mL and 80.6 µg/mL and 104.8 µg/mL
- plasma concentration at 24 hours ([2]; individual rats 8, 9, 11): 82.5 µg/mL and 73.1 µg/mL and 66.5 µg/mL
- plasma concentration at 48 hours ([2]; individual rats 8, 9, 11): 56.2 µg/mL and 44.5 µg/mL and 47.1 µg/mL
- plasma concentration at 72 hours ([2]; individual rats 8, 9, 11): 39.7 µg/mL and 37.4 µg/mL and 30.8 µg/mL
- plasma concentration at 96 hours ([2]; individual rats 8, 11): 24.6 µg/mL
- inhibition at 10 min, 0.33 µM (CYP3A4 [3]): 1.5%
- inhibition at 10 min, 1 µM (CYP3A4 [3]): 0%
- inhibition at 10 min, 3.3 µM (CYP3A4 [3]): 1.8%
- inhibition at 10 min, 10 µM (CYP3A4 [3]): 1.3%
- inhibition at 10 min, 33.3 µM (CYP3A4 [3]): 1.5%
- inhibition at 20 min, 0.33 μM (CYP2E1 [4]): 3%
- inhibition at 20 min, 1 μM (CYP2E1 [4]): 1%
- inhibition at 20 min, 3.3 μM (CYP2E1 [4]): 3%
- inhibition at 20 min, 10 μM (CYP2E1 [4]): 1%
- inhibition at 20 min, 33.3 μM (CYP2E1 [4]): 3%
- Chlorzoxazone 6-OH CZX Production (CYP2E1 [5]; 0.33 μM): 238 ± 4 pmol/mg protein/min
- Chlorzoxazone 6-OH CZX Production (CYP2E1 [5]; 1 μM): 244 ± 1 pmol/mg protein/min
- Chlorzoxazone 6-OH CZX Production (CYP2E1 [5]; 3.3 μM): 239 ± 4 pmol/mg protein/min
- Chlorzoxazone 6-OH CZX Production (CYP2E1 [5]; 10 μM): 244 ± 6 pmol/mg protein/min
- Chlorzoxazone 6-OH CZX Production (CYP2E1 [5]; 33.3 μM): 239 ± 4 pmol/mg protein/min
- Dextromethorphan DEX Production (CYP2D6 [6]; 0.33 μM): 107 ± 4 pmol/mg protein/min
- Dextromethorphan DEX Production (CYP2D6 [6]; 1 μM): 110 ± 2 pmol/mg protein/min
- Dextromethorphan DEX Production (CYP2D6 [6]; 3.3 µM): 104 ± 3 pmol/mg protein/min
- Dextromethorphan DEX Production (CYP2D6 [6]; 10 µM): 107 ± 1 pmol/mg protein/min
- Dextromethorphan DEX Production (CYP2D6 [6]; 33.3 µM): 106 ± 4 pmol/mg protein/min
- inhibition at 30 min, 0.33 μM (CYP1A2): 1%
- inhibition at 30 min, 1 μM (CYP1A2): 0%
- inhibition at 30 min, 3.3 μM (CYP1A2): -1%
- inhibition at 30 min, 10 μM (CYP1A2): -1%
- inhibition at 30 min, 33.3 μM (CYP1A2): -1%
- inhibition at 20 min, 0.33 μM (CYP2A6): -4%
- inhibition at 20 min, 1 μM (CYP2A6): -2%
- inhibition at 20 min, 3.3 μM (CYP2A6): 0%
- inhibition at 20 min, 10 μM (CYP2A6): -3%
- inhibition at 20 min, 33.3 μM (CYP2A6): -1%
- Testosterone 6β-OHT Production (CYP3A4 [7]; 0.33 µM): 1816 ± 12 pmol/mg protein/min
- Testosterone 6β-OHT Production (CYP3A4 [7]; 1 µM): 1851 ± 14 pmol/mg protein/min
- Testosterone 6β-OHT Production (CYP3A4 [7]; 3.3 µM): 1810 ± 3 pmol/mg protein/min
- Testosterone 6β-OHT Production (CYP3A4 [7]; 10 µM): 1819 ± 4 pmol/mg protein/min
- Testosterone 6β-OHT Production (CYP3A4 [7]; 33.3 µM): 1816 ± 6 pmol/mg protein/min
- inhibition at 40 min, 0.33 μM (CYP2C9 [8]): 5%
- inhibition at 40 min, 1 μM (CYP2C9 [8]): 10%
- inhibition at 40 min, 3.3 μM (CYP2C9 [8]): 21%
- inhibition at 40 min, 10 μM (CYP2C9 [8]): 47%
- inhibition at 40 min, 33.3 μM (CYP2C9 [8]): 71%
- inhibition of CYP2E1, in words (CYP2E1 [9]): not observed
- inhibition at 15 min, 0.33 μM (CYP2D6 [10]): 3%
- inhibition at 15 min, 1 μM (CYP2D6 [10]): 1%
- inhibition at 15 min, 3.3 µM (CYP2D6 [10]): 6%
- inhibition at 15 min, 10 µM (CYP2D6 [10]): 4%
- inhibition at 15 min, 33.3 µM (CYP2D6 [10]): 5%
